# Data as given in article PMC5038265 (Antimicrobial Agents and Chemotherapy, 2016).
# Like-named read-outs stand apart in the source and are kept apart here.
# Experiments:
# Vero cells = experiment: In vitro cytotoxicity assay (MTT); type: cell-based, African green monkey; details: Chlorocebus sabaeus, 72 h
# Protocol: Vero epithelial cells (from African green monkey; ATCC CCL-81) were cultured in Dulbecco's modified Eagle's medium (DMEM) supplemented with 10% fetal bovine serum (FBS) and maintained in a humidified incubator (37°C in 5% CO2). Cells were dislodged with a cell scraper, collected by centrifugation, resuspended in fresh medium at ∼10^6 cells/ml, dispensed into 96-well microtiter plates ([…]), and incubated for 18 h at 37°C. Twofold serial dilutions of test compounds in DMEM with FBS were subsequently added, and cells were incubated for another 72 h. In triplicate studies, the cytopathic effects of compounds were evaluated colorimetrically by using the 3-(4,5-dimethyl-2-thiazolyl)-2,5-diphenyl-2H-tetrazolium bromide (MTT) cell proliferation assay (ATCC). IC50 data were obtained from dose-response curves plotted by using GraphPad Prism 5.
# M. tuberculosis H37Rv [1] = experiment: MIC for M. tuberculosis H37Rv (resazurin/alamarBlue); type: cell-based, Mycobacterium tuberculosis; details: for MIC: Mycobacterium tuberculosis, H37RV, read-out: MIC M.tb H37Rv; for MIC values used in kill kinetics experiment: M. tuberculosis H37Rv, Fig. 6
# in vivo = details: 30 mg/kg
# Protocol: Mouse pharmacokinetic studies were conducted by using female CD-1 mice for compounds 1, 11, and 12, while BALB/c mice were used for compound 13. Mouse body weights were 19 to 28 g, and on the morning of dosing, mice were split randomly into 3 dosing groups to receive the test article by either intravenous (i.v.) tail vein injection or oral (p.o.) gavage. After dosing, blood samples were collected via cardiac puncture at specific time points (n = 3 mice/time point) through 24 h (K2EDTA as an anticoagulant) and processed for plasma. Antibiotic concentrations in the plasma samples were analyzed by liquid chromatography-tandem mass spectrometry (LC-MS/MS). The LC-MS/MS analysis was conducted by using analyte/internal standard peak area methods. The internal standard was AN3365 ([21]), and the instrument used was an API4000 QTRAP instrument (AB Sciex). The limit of quantitation (LOQ) was 1 or 2 ng/ml. Pharmacokinetic analyses of the mean plasma concentration-time profiles were performed by using WinNonlin Pro version 5.2. A compartmental model was used for the data for i.v. dosing, and a noncompartmental model was used for the data for p.o. dosing. […] Compounds 1 and 13 were formulated in saline (0.9% [wt/vol] NaCl) at 7.5 mg/ml, and the pH was adjusted to >5 by the addition of NaOH. Compound 11 was formulated to 6.5 mg/ml in water-dimethylacetamide-ethanol (EtOH) (76:19:5), and the pH was adjusted to >5 by the addition of NaOH. Compound 12 was formulated to 7.5 mg/ml in PEG 300-propylene glycol (PG)-water (55:25:20), and the pH was adjusted to >5 by the addition of NaOH.
# M. tuberculosis LeuRS = M. tuberculosis LeuRS (Mycobacterium tuberculosis, UniProt P9WFV1); experiment: biochemical; set-up: species or system M. tuberculosis H37Rv
# Chain of M. tuberculosis LeuRS (P9WFV1 whole entry): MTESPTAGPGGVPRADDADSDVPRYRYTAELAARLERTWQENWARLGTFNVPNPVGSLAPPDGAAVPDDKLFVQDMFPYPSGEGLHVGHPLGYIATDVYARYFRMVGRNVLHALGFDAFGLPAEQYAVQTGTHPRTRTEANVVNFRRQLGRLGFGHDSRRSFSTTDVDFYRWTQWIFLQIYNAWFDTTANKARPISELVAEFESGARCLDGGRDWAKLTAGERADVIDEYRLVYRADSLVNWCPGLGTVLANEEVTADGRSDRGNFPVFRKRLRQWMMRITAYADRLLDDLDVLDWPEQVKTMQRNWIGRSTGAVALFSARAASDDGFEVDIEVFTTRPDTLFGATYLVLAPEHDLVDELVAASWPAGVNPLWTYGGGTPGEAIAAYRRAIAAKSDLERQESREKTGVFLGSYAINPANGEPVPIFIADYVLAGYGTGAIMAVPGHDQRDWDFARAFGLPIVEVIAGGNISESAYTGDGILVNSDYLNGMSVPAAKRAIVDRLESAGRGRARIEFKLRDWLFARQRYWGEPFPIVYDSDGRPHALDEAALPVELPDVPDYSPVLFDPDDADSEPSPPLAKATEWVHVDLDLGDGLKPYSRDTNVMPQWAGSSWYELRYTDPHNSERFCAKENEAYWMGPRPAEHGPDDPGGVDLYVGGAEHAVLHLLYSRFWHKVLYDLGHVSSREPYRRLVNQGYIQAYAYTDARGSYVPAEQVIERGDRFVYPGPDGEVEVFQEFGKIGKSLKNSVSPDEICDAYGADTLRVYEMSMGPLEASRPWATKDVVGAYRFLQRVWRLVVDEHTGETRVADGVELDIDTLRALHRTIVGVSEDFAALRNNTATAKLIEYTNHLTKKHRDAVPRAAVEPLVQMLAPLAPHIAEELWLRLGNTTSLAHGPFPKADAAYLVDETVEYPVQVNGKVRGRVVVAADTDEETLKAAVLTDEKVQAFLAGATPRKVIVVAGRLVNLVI
# [2] = tested on: M. smegmatis ATCC 700084 and leuS resistant mutants; experiment: Liquid culture MIC for compound 1-resistant M. smegmatis mutants; type: cell-based, Mycobacterium smegmatis; details: Mycolicibacterium smegmatis
# Text: Mutants resistant to compound 1 were isolated on Middlebrook 7H10 medium plus 10% (vol/vol) oleic albumin dextrose catalase (OADC) supplement (Becton Dickinson) containing compound 1 at 4× MIC. Resistance was confirmed by measuring the mutant MIC values essentially as described previously by Collins and Franzblau ([17]).
# SDHA in HepG2 cells = experiment: Mitochondrial protein synthesis assay, SDHA level; type: cell-based; details: Homo sapiens, 168 h; HepG2, 7 days; read-out: Mean EC50 ± SD SDHA
# Protocol: (§1) The human liver carcinoma-derived HepG2 cell line was obtained from the ATCC (ATCC HB-8065). HepG2 cells were grown in Dulbecco's modified Eagle's medium containing 10% fetal calf serum, 1 mM sodium pyruvate, 0.1 mM essential amino acids, and 50 U/ml penicillin-streptomycin at 37°C with 5% CO2. HepG2 cells were seeded into 96-well plates at 3,000 cells/200 μl/well in cell culture medium. Cells were then grown in the presence of the compounds at 37°C in 10% CO2 for 7 days in at least duplicate concentrations, with the medium and compounds being replaced on the fourth day. After 7 days, the levels of SDHA (subunit A of the succinate dehydrogenase complex) and COX1 (cytochrome c oxidase) were determined by using the MitoSciences In-Cell enzyme-linked immunosorbent assay (ELISA) kit. Janus green staining was used to determined cell viability after 7 days (In-Cell ELISA kit, catalog number MS643).
# HepG2 cells = experiment: HepG2 cell viability (Janus green staining); type: cell-based; details: Homo sapiens, 168 h, HepG2, 7 days, read-out: Mean EC50 ± SD Cell viability
# Protocol: as §1
# M. tuberculosis H37Rv [3] = experiment: microbe, parasite or virus in culture; type: cell-based; details: Mycobacterium tuberculosis, read-out: MIC on Middlebrook 7H10 agar
# M. tuberculosis H37Rv [4] = type: in vivo, C57BL/6J mice; details: 30 mg/kg QD, 8 weeks, lungs
# M. tuberculosis H37Rv [5] = experiment: Time-kill assay; type: cell-based
# M. tuberculosis H37Rv [6] = tested on: M. tuberculosis H37Rv; set-up: species or system C57BL/6J mice; details: mouse, in vivo
# COX1 in HepG2 cells = experiment: Mitochondrial protein synthesis assay, COX1 level; type: cell-based; details: Homo sapiens, 168 h; HepG2, 7 days; read-out: Mean EC50 ± SD COX1
# Protocol: as §1
smiles,measurement,setting,value
CCOc1cccc2c1B(O)OC2CN (stereo not shown) [Compound 1],EC50,Vero cells,> 50 µM
same,MIC,M. tuberculosis H37Rv [1],0.26 µg/mL
same,AUC(0-t),"in vivo; CD-1, mouse, in vivo, po",15000 ng·h/mL
same,Cmax,"in vivo; CD-1, mouse, in vivo, po",4330 ng/mL
same,bioavailability,"in vivo; CD-1, mouse, in vivo, po",55%
same,IC50,M. tuberculosis LeuRS; read-out: IC50 M.tb LeuRS,0.28 µM
same,MIC,"[2]; ATCC700084, M. smegmatis ATCC 700084, liquid culture",1 µg/mL
same,MIC,"[2]; ATCC700084, M. smegmatis RM1 leuS Δ421–462, liquid culture",> 256 µg/mL
CCOc1ccc(Br)c2c1B(O)O[C@@H]2CN [Compound 14],EC50,SDHA in HepG2 cells,21.5 ± 6.4 µM
same,EC50,HepG2 cells,106 ± 37.5 µM
same,MIC,M. tuberculosis H37Rv [3],0.2 µg/mL
same,reduction in CFU,M. tuberculosis H37Rv [4],2.4 log10
same,MIC values used in kill kinetics experiment,M. tuberculosis H37Rv [1],0.013 µg/mL
same,MIC,M. tuberculosis H37Rv [1],0.02 µg/mL
same,in vitro kill kinetics profile,M. tuberculosis H37Rv [5],very similar to that of the bacteriostatic protein synthesis inhibitor linezolid
same,α-t1/2 % AUC,"in vivo; mouse, i.v.",5 % AUC
same,β-t1/2 % AUC,"in vivo; mouse, i.v.",95 % AUC
same,AUC(0-inf),"in vivo; mouse, in vivo, iv",43700 ng·h/mL
same,Cmax,"in vivo; mouse, in vivo, iv",17100 ng/mL
same,MRT,"in vivo; mouse, in vivo, iv",4.7 h
same,Vd,"in vivo; mouse, in vivo, iv",3.22 L/kg
same,clearance,"in vivo; mouse, in vivo, iv",11.4 mL/min/kg
same,half-life,"in vivo; mouse, in vivo, iv, α-t1/2, mouse",0.05 h
same,half-life,"in vivo; mouse, in vivo, iv, β-t1/2, mouse",3.4 h
same,AUC(0-t),"in vivo; mouse, in vivo, po",57600 ng·h/mL
same,Cmax,"in vivo; mouse, in vivo, po",6300 ng/mL
same,Tmax,"in vivo; mouse, in vivo, po",0.5 h
same,bioavailability,"in vivo; mouse, in vivo, po",100%
same,half-life,"in vivo; mouse, in vivo, po, Terminal t1/2, mouse",3.6 h
same,IC50,M. tuberculosis LeuRS,0.08 µM
same,efficacy in murine model of acute TB infection,M. tuberculosis H37Rv [6],more active at lower doses than linezolid
same,EC50,COX1 in HepG2 cells,> 150 µM
"COc1c(N2C[C@@H]3CCCN[C@@H]3C2)c(F)cc2c(=O)c(C(=O)O)cn(C3CC3)c12 [Moxifloxacin, moxifloxacin, reference compound]",MIC,M. tuberculosis H37Rv [3],0.08 µg/mL
same,MIC values used in kill kinetics experiment,M. tuberculosis H37Rv [1],0.06 µg/mL
